How the values were obtained:
[1] = test system: U87 cancer cells (glioma model) tumor in mice; assay: Inhibition of recanalization in U87 tumors embolized with microspheres; format: in vivo
Protocol: Mice cerebral vasculatures were embolized by intravascular infusion with either (15 micron microspheres+2 mg/ml ML-7 solution) or (15 micron microspheres+vehicle) followed by daily intra-peritoneal injection of ML-7. 14 days later brain tissues were collected and vessels were labeled with fluorescein lectin. The proportion of recanalized occlusions was assessed from 50 randomly selected microsphere in each group.
U87 cancer cells, which model glioma, were implanted in mice to create a tumor. Tumors were embolized by intravascular infusion with either (15 micron microspheres+2 mg/ml ML-7 solution) or (15 micron microspheres+vehicle). 7 days later brain tissues were collected and vessels were labeled with anti CD 31 antibodies. Cell death marker caspase 3 was labeled with anti caspase 3 antibody. Without ML-7 to inhibit extravasation of emboli, individual emboli cause a moderate amount of caspase upregulation and tumor blood vessels are recanalized re-establishing blood flow to the tumor. […] The proportion of recanalized occlusions was assessed for each group.

[2] = test system: mice embolized with fibrin clots or microspheres (cerebral microvasculature); assay: Measurement of embolus extravasation in MMP 2/9 inhibitor injected embolized mice; format: in vivo, mouse
Excerpt: To induce cerebral embolization fluorescently conjugated fibrin clots, cholesterol emboli (8-20 μm in diameter) or polystyrene microspheres (10 or 15 μm in diameter) were infused through the mouse internal carotid artery. Emboli were imaged in fixed tissues by confocal microscopy after vessel labeling by I.V. injection of FITC-lycopersicom esculentum, thioflavin-S or immunolabeled with anti-PECAM-1, collagen IV or ZO-1 antibodies. Emboli were also imaged overtime in vivo by transcranial two-photon microscopy (TPM) in mice expressing GFP in endothelial cells (Tie2-GFP) or wild type mice injected with thioflavin-S I.V. Blood flow velocity was recorded by line scan TPM imaging to verify microvascular occlusion and reestablishment of flow. […] Quantification of extravasation efficiency was performed from confocal images in fixed brain slices and in a subset of experiments from in vivo TPM time-lapse images. Matrix metalloprotease 2/9 (MMP2/9) activity was measured in areas adjacent to emboli using fluorescent in situ zymography methods. […] Perivascular hypoxia was detected by administration and immunohistochemical detection of hypoxyprobe. Dendritic spine density was quantified in confocal image stacks of fixed brain slices from mice expressing YFP in a subset of pyramidal neurons. […]

[3] = 15 micron microspheres + 2 mg/ml ML-7 solution vs vehicle, FIG. 3

Compound: O=S(=O)(c1cccc2c(I)cccc12)N1CCCNCC1 [ML-7]
- cell death marker Caspase-3 within the cancer ([1]; 15 micron microspheres + 2 mg/ml ML-7 solution vs microspheres + vehicle, intravascular infusion, 7 days): broad upregulation
- extravasated emboli [1, 3]: less extravasated emboli
- proportion of recanalized occlusions (occluded vessels re-canalized) [1, 3]: fewer of occluded vessels had been re-canalized

Compound: O=S(=O)(CC1CS1)c1ccc(Oc2ccccc2)cc1 (centres unmarked) [SB-3CT]
- extravasation of clot fragments ([2]; fibrin clot-embolized mice, SB-3CT 20 mg/kg/day i.p. vs saline, 4 days): marked reduction
- microsphere extravasation ([2]; microsphere-embolized mice, SB-3CT i.p. daily 2, 10, 20 mg/kg/day or acutely 40 mg/kg vs saline, 14 days post-embolization): substantial reduction

— patent publication US9044454B2, “Regulation of microvasculature occlusion” (NORTHWESTERN UNIVERSITY, priority 2010, dated 2015)
